This note sets out measurements from ChEMBL document CHEMBL4330065, “Type IIA - Type IIB protein tyrosine kinase inhibitors hybridization as an efficient approach for potent multikinase inhibitor development: Design, synthesis, anti-proliferative activity, multikinase inhibitory activity and molecular modeling of novel indolinone-based ureides and amides” (Eur J Med Chem, 2019).

Some results are limits rather than exact numbers.

Assay [1] has as its target Fibroblast growth factor receptor 1 (Homo sapiens, UniProt P11362). In words: Inhibition of FGFR-1 (unknown origin) by ELISA.
Assay [2] addresses Platelet-derived growth factor receptor beta (Homo sapiens, UniProt P09619). In words: Inhibition of PDGFR-beta (unknown origin) by ELISA.
Assay [3] deals with Vascular endothelial growth factor receptor 2 (Homo sapiens, UniProt P35968).
Chain of Vascular endothelial growth factor receptor 2 (P35968 whole entry): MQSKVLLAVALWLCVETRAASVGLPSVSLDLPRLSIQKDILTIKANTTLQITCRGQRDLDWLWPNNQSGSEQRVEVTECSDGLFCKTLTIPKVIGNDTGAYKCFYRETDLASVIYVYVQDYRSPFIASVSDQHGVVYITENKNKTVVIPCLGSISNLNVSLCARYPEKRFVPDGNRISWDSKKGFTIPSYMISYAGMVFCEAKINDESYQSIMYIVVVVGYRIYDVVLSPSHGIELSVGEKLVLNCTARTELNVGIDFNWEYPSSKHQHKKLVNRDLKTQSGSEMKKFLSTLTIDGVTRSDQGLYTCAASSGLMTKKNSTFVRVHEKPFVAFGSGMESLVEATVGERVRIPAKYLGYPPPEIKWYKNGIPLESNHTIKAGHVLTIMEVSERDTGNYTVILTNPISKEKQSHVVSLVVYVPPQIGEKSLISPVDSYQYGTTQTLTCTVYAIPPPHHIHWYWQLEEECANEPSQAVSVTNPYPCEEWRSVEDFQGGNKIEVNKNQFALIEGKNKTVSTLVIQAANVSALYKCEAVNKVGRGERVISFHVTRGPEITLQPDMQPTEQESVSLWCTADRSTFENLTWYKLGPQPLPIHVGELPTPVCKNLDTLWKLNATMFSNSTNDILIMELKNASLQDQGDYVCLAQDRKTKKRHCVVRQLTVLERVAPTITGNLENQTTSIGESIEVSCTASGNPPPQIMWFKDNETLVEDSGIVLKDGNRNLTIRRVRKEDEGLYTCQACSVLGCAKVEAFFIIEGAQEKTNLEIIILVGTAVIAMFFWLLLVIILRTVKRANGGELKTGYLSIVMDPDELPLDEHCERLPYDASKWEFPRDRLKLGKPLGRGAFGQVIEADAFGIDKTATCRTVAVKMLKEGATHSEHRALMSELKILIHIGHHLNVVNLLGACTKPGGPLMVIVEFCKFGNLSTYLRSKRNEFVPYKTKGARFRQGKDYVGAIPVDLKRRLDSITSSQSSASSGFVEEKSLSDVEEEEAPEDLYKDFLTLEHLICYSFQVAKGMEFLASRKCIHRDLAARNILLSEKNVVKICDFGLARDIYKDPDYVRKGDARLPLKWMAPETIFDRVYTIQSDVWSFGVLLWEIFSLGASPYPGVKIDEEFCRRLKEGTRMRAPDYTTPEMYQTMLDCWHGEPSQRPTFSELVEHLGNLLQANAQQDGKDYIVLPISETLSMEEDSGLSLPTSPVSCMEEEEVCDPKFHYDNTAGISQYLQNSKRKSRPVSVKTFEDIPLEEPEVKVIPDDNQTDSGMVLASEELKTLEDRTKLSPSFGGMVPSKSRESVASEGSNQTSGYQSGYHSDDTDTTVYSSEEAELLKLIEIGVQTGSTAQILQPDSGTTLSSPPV
Description: Inhibition of VEGFR-2 (unknown origin) using biotinylated poly-GluTyr (4:1) as substrate after 5 mins by ELISA
Another assay has as its system A498. Description: Antiproliferative activity against human A498 cells after 48 hrs by SRB assay. The assay is classed as functional, cell-based. As to conditions: A498, 48 h.
The next assay has as its system HepG2. In words: Antiproliferative activity against human HepG2 cells after 48 hrs by SRB assay. The conditions noted are these: HepG2, 48 h. The assay is classed as functional, cell-based.
For another assay, the system named is MCF7. Description: cells. The conditions noted are these: Homo sapiens, MCF7, 48 h.
For the next assay, the system named is A549. Description: cells. As to conditions: Homo sapiens, A549, 48 h.
A short description of assay [4]: Cytotoxicity against human HFB4 cells after 48 hrs by SRB assay. The format is cell-based.

Chain of Platelet-derived growth factor receptor beta (P09619 whole entry): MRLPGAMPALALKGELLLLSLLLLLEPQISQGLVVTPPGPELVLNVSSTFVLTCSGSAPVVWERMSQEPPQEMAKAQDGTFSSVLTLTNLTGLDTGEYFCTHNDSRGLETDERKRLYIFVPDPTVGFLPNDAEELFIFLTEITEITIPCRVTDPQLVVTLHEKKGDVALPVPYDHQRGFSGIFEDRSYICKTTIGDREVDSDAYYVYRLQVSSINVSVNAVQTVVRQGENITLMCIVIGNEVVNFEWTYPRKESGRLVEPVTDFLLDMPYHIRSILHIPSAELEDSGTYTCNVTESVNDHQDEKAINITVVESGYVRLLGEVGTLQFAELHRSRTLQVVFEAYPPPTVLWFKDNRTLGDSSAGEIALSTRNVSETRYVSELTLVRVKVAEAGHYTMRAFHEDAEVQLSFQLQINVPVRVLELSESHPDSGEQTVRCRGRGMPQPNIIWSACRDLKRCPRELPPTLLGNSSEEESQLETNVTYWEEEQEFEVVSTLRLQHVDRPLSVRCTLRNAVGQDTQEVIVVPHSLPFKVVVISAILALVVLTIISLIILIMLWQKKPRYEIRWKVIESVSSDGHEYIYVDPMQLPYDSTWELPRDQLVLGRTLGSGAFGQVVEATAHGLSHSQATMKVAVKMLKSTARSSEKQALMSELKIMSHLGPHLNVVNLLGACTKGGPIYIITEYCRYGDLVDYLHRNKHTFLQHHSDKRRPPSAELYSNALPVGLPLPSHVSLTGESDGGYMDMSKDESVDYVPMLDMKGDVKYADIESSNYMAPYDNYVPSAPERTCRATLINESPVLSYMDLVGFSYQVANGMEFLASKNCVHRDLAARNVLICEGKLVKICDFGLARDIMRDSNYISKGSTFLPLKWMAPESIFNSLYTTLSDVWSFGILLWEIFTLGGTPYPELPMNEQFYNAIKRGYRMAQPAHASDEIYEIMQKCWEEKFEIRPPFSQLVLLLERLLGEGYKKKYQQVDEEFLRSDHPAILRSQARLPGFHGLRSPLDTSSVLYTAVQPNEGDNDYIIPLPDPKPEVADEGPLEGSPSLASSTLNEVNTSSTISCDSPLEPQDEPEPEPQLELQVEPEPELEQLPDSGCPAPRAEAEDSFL
Chain of Fibroblast growth factor receptor 1 (P11362 whole entry): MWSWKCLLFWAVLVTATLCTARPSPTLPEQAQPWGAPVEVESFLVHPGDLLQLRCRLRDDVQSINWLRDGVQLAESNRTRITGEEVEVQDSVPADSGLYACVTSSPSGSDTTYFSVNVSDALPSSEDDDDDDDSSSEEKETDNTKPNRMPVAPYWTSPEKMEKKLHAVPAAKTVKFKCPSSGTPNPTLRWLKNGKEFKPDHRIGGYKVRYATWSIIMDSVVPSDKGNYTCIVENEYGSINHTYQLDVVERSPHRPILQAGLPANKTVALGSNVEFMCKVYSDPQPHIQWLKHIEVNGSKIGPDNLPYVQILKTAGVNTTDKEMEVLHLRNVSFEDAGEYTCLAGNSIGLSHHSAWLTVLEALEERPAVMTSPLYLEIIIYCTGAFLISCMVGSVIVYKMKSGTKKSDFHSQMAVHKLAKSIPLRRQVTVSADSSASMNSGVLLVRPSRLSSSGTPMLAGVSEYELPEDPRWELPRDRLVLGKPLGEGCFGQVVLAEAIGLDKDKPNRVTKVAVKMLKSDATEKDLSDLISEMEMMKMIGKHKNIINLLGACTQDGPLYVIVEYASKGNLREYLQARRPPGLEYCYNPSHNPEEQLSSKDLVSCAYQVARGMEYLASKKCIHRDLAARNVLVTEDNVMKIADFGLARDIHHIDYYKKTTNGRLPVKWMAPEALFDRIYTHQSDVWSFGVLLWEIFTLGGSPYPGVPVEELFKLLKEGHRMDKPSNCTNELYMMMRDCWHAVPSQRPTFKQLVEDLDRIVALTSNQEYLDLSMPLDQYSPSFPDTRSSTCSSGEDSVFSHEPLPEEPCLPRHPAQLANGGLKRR
Description for A549: Antiproliferative activity against human A549 cells after 48 hrs by SRB assay
Description for MCF7: Antiproliferative activity against human MCF7 cells after 48 hrs by SRB assay

Consider `COc1ccc(NC(=O)Nc2ccc(C(=O)N/N=C3\C(=O)Nc4ccc(OC)cc43)cc2)cc1`, for which the figures for the IC50 in assay [1] and in assay [2] were 0.17 µM and 0.33 µM, respectively.

Take `COc1cccc(NC(=O)Nc2ccc(C(=O)N/N=C3\C(=O)Nc4ccc(OC)cc43)cc2)c1`: the IC50 is 0.3 µM in assay [1]; 0.27 µM in assay [3]; 0.78 µM with A498 (read-out: IC50); 2.93 µM in the assay on HepG2; 27 µM in the assay with MCF7; greater than 100 µM in the assay with A549. Further, the half-maximal inhibitory concentration (IC50) in assay [4] came out at 45.8 µM; in assay [2], 0.11 µM.

For the compound `COc1ccc(NC(=O)Nc2ccc(C(=O)N/N=C3\C(=O)Nc4ccc(Br)cc43)cc2)cc1`, the IC50 in assay [1] came out at 0.61 µM; in assay [2], 3.79 µM.

Regarding `COc1ccc(C(=O)Nc2ccc(C(=O)N/N=C3\C(=O)Nc4ccc(Br)cc43)cc2)cc1`, the IC50 in assay [1] was 0.38 µM; in assay [2], 0.23 µM.

With `COc1ccc(C(=O)Nc2ccc(C(=O)N/N=C3\C(=O)Nc4ccc(OC)cc43)cc2)cc1`, the IC50 was determined as 0.46 µM in assay [1] and 0.09 µM in assay [2].

For `COc1ccc2c(c1)/C(=N/NC(=O)c1ccc(NC(=O)c3ccc(Cl)cc3)cc1)C(=O)N2`, the IC50 was 0.39 µM in assay [1] and 2.01 µM in assay [2].

For the compound `COc1cccc(NC(=O)Nc2ccc(C(=O)N/N=C3\C(=O)Nc4ccc(Br)cc43)cc2)c1`, the figures for the IC50 in assay [1] and in assay [2] were 0.48 µM and 1.59 µM, respectively.

Take `COc1ccc2c(c1)/C(=N/NC(=O)c1ccc(NC(=O)Nc3ccccc3)cc1)C(=O)N2`: the IC50 in assay [1] is 0.28 µM; in assay [2], 3.64 µM.

Turning to `CNC(=O)c1cc(Oc2ccc(NC(=O)Nc3ccc(Cl)c(C(F)(F)F)c3)cc2)ccn1` [SORAFENIB], the IC50 in the assay on HepG2 was 5.23 µM; in the assay on MCF7 it was 4.27 µM; in the assay on A549 it was 6.11 µM; in assay [4], 85 µM.

As for `COc1cccc(NC(=O)Nc2ccc(C(=O)N/N=C3\C(=O)Nc4ccc(Cl)cc43)cc2)c1`, the IC50 in assay [1] amounted to 0.42 µM; in assay [2], 1.29 µM.

As for `COc1ccc2c(c1)/C(=N/NC(=O)c1ccc(NC(=O)Nc3ccc(Cl)cc3)cc1)C(=O)N2`, the IC50 in assay [1] was found to be 0.39 µM; in assay [2], 1.82 µM.

On to `COc1ccc2c(c1)/C(=N/NC(=O)c1ccc(NC(=O)Nc3ccc(Cl)c(C(F)(F)F)c3)cc1)C(=O)N2`, for which the IC50 is 0.23 µM in assay [1] and 0.1 µM in assay [2].

`O=C(Nc1ccc(C(=O)N/N=C2\C(=O)Nc3ccc(Br)cc32)cc1)Nc1ccc(Cl)c(C(F)(F)F)c1`: the IC50 is 0.31 µM in assay [1] and 0.45 µM in assay [2].

As for `COc1cccc2c1C(=O)c1c(O)c3c(c(O)c1C2=O)C[C@@](O)(C(=O)CO)C[C@@H]3O[C@H]1C[C@H](N)[C@H](O)[C@H](C)O1` [DOXORUBICIN], the IC50 in the assay with A498 was determined as 1.1 µM; in the assay on HepG2, 4.1 µM; in the assay on A549 it was 4.36 µM; in assay [4] it was 80.3 µM.
